Laboratory results reported in ChEMBL document CHEMBL1201862, “PubChem BioAssay data set” (2004).
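Each compound was tested at five concentrations against cells in 96-well plates for 48 hours. Abbreviation: GI50, concentration required for 50% inhibition of growth.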 Active and inactive are the calls of the source. Rule as the data show it: active = GI50 up to about 1.1 µM and inactive = higher.

Key:
Test in all cases: NCI-60 cell line screen, 48 h
[1] = tested on: A549
[2] = tested on: ACHN
[3] = tested on: CCRF-CEM
[4] = tested on: COLO 205
[5] = tested on: HT-29
[6] = tested on: LOX IMVI
[7] = tested on: NCI-H226
[8] = tested on: OVCAR-5
[9] = tested on: SF-539
[10] = tested on: SK-MEL-28
[11] = tested on: SNB-75
[12] = tested on: SR
[13] = tested on: TK-10
[14] = tested on: HCC 2998
[15] = tested on: CAKI-1

Measured: GI50

CN(C)CCNC(=O)c1cccc2c(Nc3ccc(S(=O)(=O)N=C(N)N)cc3)c3ccccc3nc12
inactive: [1] 10.6 µM | [2] 22.1 µM | [3] 2.57 µM | [4] 9.04 µM | [5] 16.3 µM | [6] 5.94 µM | [7] 2.19 µM | [8] 28.4 µM | [9] 11.3 µM | [10] 24.5 µM | [11] 15.1 µM | [12] 2.61 µM | [13] 75.9 µM

CN(C)CC1CCCC(CN(C)C)C1=NOC(=O)c1ccccc1 (centres undefined)
inactive: [1] > 100 µM | [2] > 100 µM | [3] > 100 µM | [4] > 100 µM | [14] > 100 µM | [5] > 100 µM | [6] > 100 µM | [7] > 100 µM | [8] > 100 µM | [9] > 100 µM | [10] > 100 µM | [11] > 56.5 µM | [12] > 100 µM | [13] > 100 µM

COC(=O)C(=O)CC(=O)CCn1ncc(Cl)c(Cl)c1=O
inactive: [1] 19.9 µM | [2] 20.1 µM | [15] 5.78 µM | [3] 3.59 µM | [4] 14.3 µM | [14] 7.45 µM | [5] 11.5 µM | [6] 7.16 µM | [7] 24.2 µM | [8] 19.2 µM | [9] 19.6 µM | [10] 14 µM | [11] 20.8 µM | [12] 2.84 µM | [13] 47.4 µM

CC(C(=O)c1ccccc1)C1(O)C(=O)Nc2ccc(Cl)cc21 (centres undefined)
inactive: [1] > 100 µM | [2] > 100 µM | [15] > 100 µM | [4] > 100 µM | [14] > 100 µM | [5] 75.7 µM | [6] 50.6 µM | [7] > 100 µM | [8] > 100 µM | [9] > 100 µM | [10] > 100 µM | [11] > 100 µM | [13] > 100 µM

CN(C)c1[se]nc2c1c(=O)n(C)c(=O)n2C
inactive: [1] > 100 µM | [2] > 100 µM | [15] > 100 µM | [3] > 100 µM | [4] > 100 µM | [14] > 100 µM | [5] > 100 µM | [6] > 100 µM | [7] > 100 µM | [8] > 100 µM | [9] > 100 µM | [10] > 100 µM | [11] 58.5 µM | [13] > 100 µM

COc1ccc2c(CCNC(C)=O)c(C(C)=O)[nH]c2c1
inactive: [1] > 100 µM | [2] > 100 µM | [15] 70.5 µM | [3] > 100 µM | [4] > 100 µM | [14] > 100 µM | [5] > 100 µM | [6] > 100 µM | [7] 71.4 µM | [8] > 100 µM | [9] > 100 µM | [10] > 100 µM | [11] > 100 µM | [12] > 100 µM | [13] > 100 µM

COC(=O)C1C(=O)O[C@@H](c2ccc(OC)cc2)C1C(=O)OC (some centres undefined)
inactive: [1] > 100 µM | [2] > 100 µM | [15] > 100 µM | [3] > 100 µM | [4] > 100 µM | [14] > 100 µM | [5] > 100 µM | [6] > 100 µM | [7] > 100 µM | [8] > 100 µM | [9] > 100 µM | [10] > 100 µM | [11] > 100 µM | [12] > 100 µM | [13] > 100 µM

CC1CCP(=O)(c2ccccc2)CC1 (centres undefined)
inactive: [1] > 100 µM | [2] > 100 µM | [15] > 100 µM | [3] > 100 µM | [4] > 100 µM | [14] > 100 µM | [5] > 100 µM | [6] > 100 µM | [8] > 100 µM | [9] > 100 µM | [10] > 100 µM | [11] > 100 µM | [13] > 100 µM

O=C1Nc2ccccc2/C1=N/NC(=O)c1ccccc1O
inactive: [1] 55.3 µM | [2] 21.8 µM | [3] 33.4 µM | [4] > 100 µM | [14] 23 µM | [5] 82.2 µM | [6] 48.4 µM | [7] 33.2 µM | [8] > 100 µM | [9] 41.4 µM | [10] 60.5 µM | [11] 19.8 µM | [13] 65.9 µM

CCOC(=O)N1C(=O)C2C3C=CC(C2C1=O)C1C2C(=O)N(C(=O)OCC)C(=O)C2C31 (centres undefined)
inactive: [1] > 100 µM | [2] > 100 µM | [15] > 100 µM | [3] > 93.1 µM | [4] 98.9 µM | [14] > 100 µM | [5] > 100 µM | [6] > 46.6 µM | [7] > 100 µM | [8] > 100 µM | [9] > 100 µM | [10] > 100 µM | [11] > 92 µM | [13] > 100 µM
